Our source for the TGI and GI50 values is PubChem BioAssay (NCI).

Molecules are shown by their SMILES.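 Protocol summary: plate cells (96-well), add compound at 5 concentrations, incubate 48 h, interpolate endpoints linearly. The concentration for 50% growth inhibition is given as GI50. TGI: total growth inhibition.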

Holding throughout (assay): DTP human tumour cell line panel, 48 h
For assay [1], the system named is 786-0 renal.
The subject of assay [2] is SW-620 colon.
In assay [3] the test system is UACC-62 melanoma.
Assay [4] relates to ACHN renal.
The test system of assay [5] is SF-539 CNS.
Assay [6] has as its system M14 melanoma.
For assay [7], the system named is SR leukemia.
The test system of assay [8] is SN12C renal.
The test system of assay [9] is A498 renal.
In assay [10] the test system is SNB-75 CNS.

In the case of `CCCCCCCCCCCCCCCc1nc(SCC(=O)O)n[nH]1`, the TGI is 42.1 µM in [1]; greater than 100 µM in [2]; greater than 100 µM in [3]; greater than 100 µM in assay [4]; greater than 100 µM in assay [5]; 42.4 µM in [6]. Besides, the TGI in assay [7] and in [8] was greater than 100 µM throughout.

Turning to `COc1ccc(/C=N/C2=C(C#N)C(c3ccccc3)c3ccc4ccccc4c3O2)cc1` (stereo not drawn), the GI50 in assay [1] was 0.492 µM; in assay [2] it was 0.316 µM; in [3] it was 0.491 µM; in assay [4], 0.69 µM; in assay [5] it was 0.244 µM; in assay [6], 0.336 µM. In addition, the GI50 in assay [7] is 0.304 µM; in assay [9], 0.213 µM; in [8] it was 0.68 µM. Further, the TGI in assay [1] is greater than 100 µM; in [2], greater than 100 µM; in [3], greater than 100 µM; in assay [4] it was greater than 100 µM; in assay [5], 1.05 µM; in assay [6] it was greater than 100 µM. Besides, the TGI is greater than 75.8 µM in assay [7], 0.785 µM in [9] and greater than 100 µM in assay [8].

Regarding `O=c1cc(/C=C/c2ccccc2)c2ccc(O/C(=C\c3ccccc3)c3nc4ccccc4c(=O)o3)cc2o1`, the TGI in assay [1] was greater than 100 µM; in [2], greater than 100 µM; in assay [3], greater than 100 µM; in [4], 61.7 µM; in [5], 63.2 µM; in [6], 50.1 µM. For the same molecule, the TGI in [9] and in assay [8] was greater than 100 µM each time.

In the case of `O=C1CCC(=O)C12CCc1ccccc12`, the TGI in assay [1], in assay [2], in assay [3], in [4], in [6] and in assay [10] was greater than 100 µM throughout. This molecule gave a TGI in assay [8] greater than 100 µM.

Regarding `C[C@]12CC[C@H](O)CC1CCC[C@@H]2O` (stereo partly drawn), the TGI in assay [1], in assay [2], in [3], in assay [5], in [6] and in assay [10] was greater than 100 µM throughout. The TGI in assay [9] and in assay [8] was greater than 100 µM in each case.

As to `O=C(O)c1cccc(F)c1C(=O)c1ccc2ccccc2c1`, the TGI in assay [1], in assay [2], in [3], in assay [4], in [5] and in assay [6] was greater than 100 µM throughout. Moreover, the TGI in [10], in [9] and in assay [8] was greater than 100 µM each time.

As for `CCCCCCCCCCCC(=O)[O][Sn]([CH2]CCC)([CH2]CCC)[CH2]CCC`, the GI50 in assay [1] was 0.0539 µM; in assay [2], 0.0419 µM; in [3], 0.0515 µM; in assay [4], 0.0596 µM; in [5] it was 0.0609 µM; in assay [6], 0.0548 µM. The figures for the GI50 in assay [10], in assay [9] and in assay [8] were 0.0282 µM, 0.0241 µM and 0.0767 µM, respectively. Moreover, the TGI in assay [1] came out at 0.132 µM; in assay [2], 0.138 µM; in [3] it was 0.11 µM; in assay [4], 0.157 µM; in [5], 0.141 µM; in assay [6], 0.142 µM. For the same molecule, the TGI was found to be 0.113 µM in [10], 0.0883 µM in assay [9] and 0.221 µM in [8].

Take `Cn1c(=O)ccc2cc(C(=O)c3ccccc3)ccc21`: the TGI in assay [1] was greater than 100 µM; in assay [2] it was greater than 100 µM; in [3], 50.5 µM; in [4] it was greater than 100 µM; in [5], greater than 100 µM; in [6] it was greater than 100 µM. The TGI is 54.3 µM in [10], greater than 100 µM in assay [9] and greater than 100 µM in [8].

For `Cc1cc(=O)[nH]c2c1C(=O)C(=O)C=C2`, the GI50 in [1] is 18.7 µM; in [2] it was 24.7 µM; in [3] it was 36.4 µM; in assay [4] it was 31.7 µM; in assay [5], 28.2 µM; in assay [6], 23.8 µM. Further, the GI50 in assay [10] was 33.5 µM; in [8], 16.8 µM. Besides, the TGI in assay [1] was 36.3 µM; in assay [2], 67.8 µM; in assay [3] it was greater than 100 µM; in [4], greater than 100 µM; in [5], 47.7 µM; in assay [6], 60.9 µM. Besides, the TGI in assay [10] is greater than 100 µM; in [8], 32.7 µM.

`Cc1cccc(C)c1NC(=O)/C(CC(=O)CC(c1ccccc1)c1c(O)c2ccccc2oc1=O)=N/O` (stereo not drawn): the TGI in [1], in assay [2], in assay [3], in assay [4], in assay [5] and in assay [6] was greater than 100 µM throughout. Further, the TGI in [10] and in assay [8] was greater than 100 µM throughout.

As for `NCCCSCC(=O)O`, the TGI in [1], in [2], in assay [3], in assay [4], in assay [5] and in assay [10] was greater than 100 µM each time. The same molecule registered a TGI in assay [8] greater than 100 µM.

In the case of `CCC1(O)CC(c2ccccc2)N(C)C(c2ccccc2)C1` (stereo not drawn), the TGI in assay [1], in assay [2], in assay [3], in assay [4], in assay [5] and in assay [6] was greater than 100 µM each time. Also, the TGI in assay [10], in [9] and in assay [8] was greater than 100 µM throughout.

As for `CCOC(=O)/C(C#N)=C/c1[nH]c(C)c(C)c1C`, the TGI in [1], in assay [2], in [3], in assay [5], in assay [6] and in [10] was greater than 100 µM in each case. The TGI in assay [9] and in [8] was greater than 100 µM in each case.
